Measured values: patent US12527774B2, “Estrogen-related receptor alpha modulators” (LEAD PHARMA HOLDING B.V., priority 2019, dated 2026)

Key:
[1] = biological target: ERRα ligand binding domain (ERRα-LBD) (Homo sapiens (Human), UniProt P11474); experiment: ERRα AlphaScreen Assay; format: biochemical; conditions: disruption of binding of ERRα-LBD protein to biotin-PGC1α-3 co-activator peptide; for IC50: read-out: mean pIC50 (converted)
How it was run: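 Disruption of co-activator binding read by AlphaScreen: compounds in triplicate, 1% DMSO, Tris pH 7.5 buffer, room temperature. Bacterially expressed 6His-SUMO-ERRα-LBD at 0.81 nM with beads for 1 h, then 15 nM biotinylated PGC1α peptide for 2 h. IC50 from four-parameter fits, averaged as pIC50.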

full length ERRα = full length ERRα (Homo sapiens (Human), UniProt P11474); experiment: Full Length ERRα Reporter Gene Assay; format: cell-based; conditions: SK-BR-3 cells, ERRα-RE luciferase reporter, overnight incubation; read-out: mean pIC50 (converted)
From the text: Full Length ERRα Reporter Gene Assay
A method was established to quantitatively screen the potency of compounds with inverse agonistic activity on the nuclear receptor ERRα of the human species. The assay allows intra-cellular screening of ERRα inverse agonists in SK-BR-3 cells using an over-expression construct coding full length ERRα and a reporter construct containing an ERRα Response Element (RE) and a luciferase gene for read out. The activity is expressed in log IC50 values and can be used to determine SAR of compound families or to de-select compounds.
In this assay, reporter cells are obtained by transient co-transfection of two constructs in SK-BR-3 cells using standard transfection techniques. The first construct contains a response element of the nuclear receptor ERRα (Plasmid pLP2175, Reporter construct ERRα-RE/luc2P, cloned variant of ERRα_v2_synthRE, Switchgear Genomics, Catalog Number S900089). This sequence drives the transcription of the luciferase reporter gene in response to binding of an ERRα protein encoded by the second construct (Plasmid pLP2124: full length ERRα expression construct using pcDNA3.1/Hygro(+) as background, Invitrogen Catalog Number V87020).
The day after transfection, cells were plated into 96 well plates, test compound was added and the plates were incubated overnight. Subsequently, the firefly luciferase activity was quantified using luciferase detection reagent and luminescence readout.
Detailed Assay Description
Transfection is performed on pre-seeded SK-BR-3 cells in a T175 flask. One transfected T175 flask is sufficient for seeding 3 to 4 MW96 plates the next day, depending on the confluency of the transfected cells.
Two different media are used in this protocol for cell treatment: 1) Culture medium, i.e. McCoy's 5a with phenol red (BioWhittaker Supplier Number 12-688F), 10% FBS and 1× Penstrep.; and, 2) Assay medium, i.e. McCoy's 5a Medium phenol red free (HyClone Product Code SH30270.01) with 2% Charcoal Stripped FBS and 1× Penstrep. Compound dilutions are prepared in assay medium.
Cells are seeded at least 2 days in advance to allow the cells to adhere well to flask before transfection. Cells should be 50-80% confluent at the day of transfection.
SKBR3 cells were transfected with the transcriptional reporter construct pLP2175 and the ERRα expression construct pLP2124 (as described above).
68 μL of Lipofectamine LTX transfection reagent (Invitrogen Catalog Number 15338-100) was added dropwise to 8.9 ml Opti-MEM I Reduced Serum Medium (Gibco Catalog Number 51985-026) and incubated at room temperature for 5 to 20 minutes. 8.9 ml of this reagent mixture was added to 22 μg pLP2175+22 μg pLP2124 (ratio 1:1 and total volume 10 ml), and incubated at room temperature for 25 minutes.
10 minutes before adding the transfection mix to SKBR3 cells in a T175 flask, the culture medium was refreshed with 20 mL culture medium. Subsequently, the 10 mL DNA-Opti-MEM-Lipofectamine mixture was gently added to the cells, followed by overnight (16-24 hours) incubation at 37° C. and 5% CO2.
To harvest SKBR3 cells from a T175 flask, first the medium was removed. Subsequently, cells were washed with Phosphate Buffered Saline (PBS) (Lonza), after which the PBS was removed. To dissociate the cells, 2 ml of TrypLE Express (Invitrogen) was added to the flask, followed by incubation at 37° C. for 5 minutes. The flask was tapped until cells were detached from the bottom. Cells were collected in 8 mL of culture medium (McCoy's 5α, 10% FBS, penstrep), to achieve a single cell suspension. After cell count, cells were spun down for 5 minutes at 300 g. Next cell pellets were re-suspended to 25000 cells/80 μl assay medium (McCoy's 5a phenol red free, 2% charcoal stripped FBS, penstrep).
For compound screening, the cells were harvested (as described above). 80 μL of cell suspension (25,000 cells) was plated per well into a white, flat bottom, tissue culture treated, 96 well screening plates (Greiner). […]

Sequence of full length ERRα (P11474 whole entry): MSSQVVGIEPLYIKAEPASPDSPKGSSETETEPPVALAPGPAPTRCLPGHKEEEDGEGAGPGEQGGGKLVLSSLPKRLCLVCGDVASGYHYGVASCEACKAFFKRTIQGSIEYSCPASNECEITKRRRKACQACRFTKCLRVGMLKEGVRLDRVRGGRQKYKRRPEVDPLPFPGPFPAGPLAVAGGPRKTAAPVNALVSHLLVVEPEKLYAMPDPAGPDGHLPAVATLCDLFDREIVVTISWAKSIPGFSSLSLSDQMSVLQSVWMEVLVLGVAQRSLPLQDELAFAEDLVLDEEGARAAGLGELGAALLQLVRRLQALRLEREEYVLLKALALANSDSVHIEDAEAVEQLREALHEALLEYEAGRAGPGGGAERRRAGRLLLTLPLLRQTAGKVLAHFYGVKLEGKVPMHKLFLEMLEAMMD
Sequence of ERRα ligand binding domain (ERRα-LBD) (P11474 193-421): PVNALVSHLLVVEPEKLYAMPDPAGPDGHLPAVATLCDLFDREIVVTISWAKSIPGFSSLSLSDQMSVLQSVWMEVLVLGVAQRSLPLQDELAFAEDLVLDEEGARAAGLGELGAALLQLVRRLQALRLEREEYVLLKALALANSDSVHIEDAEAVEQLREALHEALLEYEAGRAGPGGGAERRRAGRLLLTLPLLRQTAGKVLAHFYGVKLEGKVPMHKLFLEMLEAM

| SMILES | mean pIC50 [1] | IC50 (full length ERRα) [nM] | IC50 [1] [nM] |
| --- | --- | --- | --- |
| COc1cc(C2CC(=O)Nc3n[nH]cc32)ccc1OCc1ccccc1OC(F)(F)F (stereo not drawn) [Example 24, 4-(3-methoxy-4-{[2-(trifluoromethoxy)phenyl]methoxy}phenyl)-2H,4H,5H,6H,7H-pyrazolo[3,4-b]pyridin-6-one] | ≥ 8 | ≤ 316 |  |
| COc1cc(C2CC(=O)Nc3n[nH]cc32)ccc1OCc1ccc(F)cc1C(F)(F)F (stereo not drawn) [Example 9, 4-(4-{[4-fluoro-2-(trifluoromethyl)phenyl]methoxy}-3-methoxyphenyl)-2H,4H,5H,6H, 7H-pyrazolo[3,4-b]pyridin-6-one] |  | ≤ 316 | 10 to 100 |
| COc1ccc(COc2ccc(-c3cc(=O)[nH]c4n[nH]cc34)cc2OC)c(C(F)(F)F)c1 [Example 170, 4-(3-methoxy-4-{[4-methoxy-2-(trifluoromethyl)phenyl]methoxy}phenyl)-2H,6H, 7H-pyrazolo[3,4-b]pyridin-6-one] | ≥ 8 | ≤ 316 |  |
| O=C1CC(c2ccc(COc3ccc(Br)cc3C(F)(F)F)c(OC(F)(F)F)c2)c2c[nH]nc2N1 (stereo not drawn) [Example 106, 4-(4-{[4-bromo-2-(trifluoromethyl)phenoxy]methyl}-3-(trifluoromethoxy)phenyl)-2H,4H,5H,6H,7H-pyrazolo[3,4-b]pyridin-6-one] |  | ≤ 316 | 10 to 100 |
| COc1cc(C2CC(=O)Nc3n[nH]cc32)ccc1OCc1ccc(CC#N)cc1C(F)(F)F (stereo not drawn) [Example 147, 2-[4-(2-methoxy-4-{6-oxo-2H,4H,5H,6H, 7H-pyrazolo[3,4-b]pyridin-4-yl}phenoxymethyl)-3-(trifluoromethyl)phenyl]acetonitrile] |  | ≤ 316 | 100 to 1000 |
| COc1cc(C2CC(=S)Nc3n[nH]cc32)ccc1OCc1ccccc1C(F)(F)F (stereo not drawn) [Example 166, 4-(3-methoxy-4-{[2-(trifluoromethyl)phenyl]methoxy}phenyl)-2H,4H,5H,6H,7H-pyrazolo[3,4-b]pyridine-6-thione] | ≥ 8 | ≤ 316 |  |
| COc1cc(C2CC(=O)Nc3n[nH]cc32)ccc1OCc1ccc(C#CCO)cc1C(F)(F)F (stereo not drawn) [Example 146, 4-(4-{[4-(3-hydroxyprop-1-yn-1-yl)-2-(trifluoromethyl)phenyl]methoxy}-3-methoxyphenyl)-2H,4H,5H,6H, 7H-pyrazolo[3,4-b]pyridin-6-one] | ≥ 8 | ≤ 316 |  |
| COc1cc(C2CC(=O)Nc3n[nH]cc32)ccc1COc1ccc(C#CCO)cc1C(F)(F)F (stereo not drawn) [Example 119, 4-(4-{[4-(3-hydroxyprop-1-yn-1-yl)-2-(trifluoromethyl)phenoxy]methyl}-3-methoxyphenyl)-2H,4H,5H,6H,7H-pyrazolo[3,4-b]pyridin-6-one] | ≥ 8 | ≤ 316 |  |
| COc1cc(C2CC(=O)Nc3n[nH]cc32)ccc1OCc1ccc(CCO)cc1C(F)(F)F (stereo not drawn) [Example 155, 4-(4-{[4-(2-hydroxyethyl)-2-(trifluoromethyl)phenyl]methoxy}-3-methoxyphenyl)-2H,4H,5H,6H, 7H-pyrazolo[3,4-b]pyridin-6-one] | ≥ 8 | ≤ 316 |  |
| COc1cc(C2CC(=O)Nc3n[nH]cc32)ccc1COc1ccc(Br)cc1C(F)(F)F (stereo not drawn) [Example 96, 4-(4-{[4-bromo-2-(trifluoromethyl)phenoxy]methyl}-3-methoxyphenyl)-2H,4H,5H,6H, 7H-pyrazolo[3,4-b]pyridin-6-one] |  | ≤ 316 | ≤ 10 |
| COc1cc(C2CC(=O)Nc3n[nH]nc32)ccc1OCc1ccc(C(C)=O)cc1C(F)(F)F (stereo not drawn) [Example 93, 7-(4-{[4-acetyl-2-(trifluoromethyl)phenyl]methoxy}-3-methoxyphenyl)-2H,4H,5H,6H,7H-[1,2,3]triazolo[4,5-b]pyridin-5-one] |  | ≤ 316 | 10 to 100 |
| COc1cc(-c2cc(=O)[nH]c3n[nH]cc23)ccc1OCc1cccc(OC)c1C(F)(F)F [Example 177, 4-(3-methoxy-4-{[3-methoxy-2-(trifluoromethyl)phenyl]methoxy}phenyl)-2H, 6H, 7H-pyrazolo[3,4-b]pyridin-6-one] | ≥ 8 | ≤ 316 |  |
| COc1cc(C2CC(=O)Nc3n[nH]cc32)ccc1OCc1ccc(CCCO)cc1C(F)(F)F (stereo not drawn) [Example 149, 4-(4-{[4-(3-hydroxypropyl)-2-(trifluoromethyl)phenyl]methoxy}-3-methoxyphenyl)-2H,4H,5H,6H, 7H-pyrazolo[3,4-b]pyridin-6-one] | ≥ 8 | ≤ 316 |  |
| COc1cc(-c2cc(=O)[nH]c3n[nH]cc23)ccc1OCc1ccccc1C(F)(F)F [Example 169, 4-(3-methoxy-4-{[2-(trifluoromethyl)phenyl]methoxy}phenyl)-2H,6H,7H-pyrazolo[3,4-b]pyridin-6-one] | ≥ 8 | ≤ 316 |  |
| COc1cc(C2CC(=O)Nc3n[nH]cc32)ccc1OCc1ccc(CCN)cc1C(F)(F)F (stereo not drawn) [Example 150, 4-(4-{[4-(2-aminoethyl)-2-(trifluoromethyl)phenyl]methoxy}-3-methoxyphenyl)-2H,4H,5H,6H, 7H-pyrazolo[3,4-b]pyridin-6-one] |  | ≤ 316 | 100 to 1000 |
| COc1cc(C2CC(=O)Nc3n[nH]nc32)ccc1OCc1ccc(CCO)cc1C(F)(F)F (stereo not drawn) [Example 157, 7-(4-{[4-(2-hydroxyethyl)-2-(trifluoromethyl)phenyl]methoxy}-3-methoxyphenyl)-2H,4H,5H,6H, 7H-[1,2,3]triazolo[4,5-b]pyridin-5-one] | ≥ 8 | ≤ 316 |  |
| O=C1CC(c2ccc(COc3ccccc3S(F)(F)(F)(F)F)c(OC(F)(F)F)c2)c2c[nH]nc2N1 (stereo not drawn) [Example 107, 4-(4-{[2-(pentafluoro-λ^6-sulfanyl)phenoxy]methyl}-3-(trifluoromethoxy)phenyl)-2H,4H,5H,6H, 7H-pyrazolo[3,4-b]pyridin-6-one] |  | ≤ 316 | 10 to 100 |
| COc1cc(C2CC(=O)Nc3n[nH]cc32)ccc1OCc1cc(C)ccc1C(F)(F)F (stereo not drawn) [Example 32, 4-(3-methoxy-4-{[5-methyl-2-(trifluoromethyl)phenyl]methoxy}phenyl)-2H,4H,5H,6H,7H-pyrazolo[3,4-b]pyridin-6-one] | ≥ 8 | ≤ 316 |  |
| COc1cc(-c2cc(=O)[nH]c3n[nH]cc23)ccc1OCc1ccc(C(C)=O)cc1C(F)(F)F [Example 174, 4-(4-{[4-acetyl-2-(trifluoromethyl)phenyl]methoxy}-3-methoxyphenyl)-2H,6H, 7H-pyrazolo[3,4-b]pyridin-6-one] | ≥ 8 | ≤ 316 |  |
| CCOc1cc(C2CC(=O)Nc3n[nH]cc32)ccc1OCc1ccccc1C(F)(F)F (stereo not drawn) [Example 62, 4-(3-ethoxy-4-{[2-(trifluoromethyl)phenyl]methoxy}phenyl)-2H,4H,5H,6H, 7H-pyrazolo[3,4-b]pyridin-6-one] | ≥ 8 | ≤ 316 |  |
| COc1ccc(C(F)(F)F)c(COc2ccc(-c3cc(=O)[nH]c4n[nH]cc34)cc2OC)c1 [Example 178, 4-(3-methoxy-4-{[5-methoxy-2-(trifluoromethyl)phenyl]methoxy}phenyl)-2H,6H,7H-pyrazolo[3,4-b]pyridin-6-one] | ≥ 8 | ≤ 316 |  |
